Test [1] concerns p-JNK in HT-29 cells. The test can be described thus: Western blot of phosphorylated JNK. The test is classed as cell-based, human. The following applies: 24 h; 10 and 20 μg/mL for 1, 2, 5, 6, 7, 8; 30 and 60 μg/mL for 3 and 4. How it is done: (§1) Cells were cultured to 80% confluence at 37 °C. After 24 h of treatment with the compounds (10 and 20 µg/mL for compounds 1, 2, 5, 6, 7, and 8, and 30 and 60 µg/mL for compounds 3 and 4), HT-29 cells were rinsed twice with ice-cold PBS, and then lysed immediately in lysis buffer (250 mM NaCl, 50 mM Tris (pH 7.5), 0.5 mM EDTA, 5 mM EGTA, 8 mM MgCl2, 1 mM PMSF, 0.01 mg/mL pepstatin A, 0.01 mg/mL leupeptin, 0.01 mg/mL aprotinin, 1% Triton X-100). After centrifugation at 12,000 g for 3 min at 4°C to separate the cellular debris, the supernatant was collected and stored at −80°C until use. The protein concentrations were determined using Bio-Rad Protein Assay (BioRad, Richmond, CA, USA), according to the manufacturer’s instructions.
(§2) Equal protein content (50 μg) samples of cell lysates were separated on 10% SDS–polyacrylamide gel and transferred to polyvinylidene difluoride membranes (Hybond-P, Amershan Biosciences, Little Chalfont, UK). The membranes were blocked with 5% (w/v) non-fat dry milk in Tris-buffered saline containing 0.1% Tween-20 buffer (pH 7.4) (TBST) for 1 h at room temperature and incubated with agitation with specific antibodies: anti-pERK1/2 (Cell Signaling; 1:1000), anti-pJNK (Cell Signaling; 1:1000), anti-pAKT (Cell Signaling; 1:1000), anti-β-actin (Sigma-Aldrich; 1:500). Membranes were incubated overnight at 4°C with gentle shaking. The secondary antibody was a peroxidase-conjugated goat anti-mouse or -rabbit antibody (1:10,000; DakoCytomation, Carpinteria, CA, USA). After washing the membrane three times in TBST buffer (10 min), the signals were detected using an enhanced chemiluminescence light-detecting kit (Super-Signal West Pico Chemiluminescent Substrate, Pierce, IL, USA), according to the manufacturer’s instructions and exposed to an X-ray film (GE Healthcare Ltd., Amersham, UK). The protein band densities were analyzed and quantified with a Scientific Imaging Systems (Biophotonics ImageJ Analysis Software, National Institute of Mental Health, Bethesda, MD, USA). β-actin was used to confirm the equal loading and transfer of proteins.
On the technique in general: Immunoblotting shows a protein as a band on a membrane.

Test [2] deals with HT-29 colon cancer cells. The experiment in a line: Cell cycle analysis by flow cytometry (PI). The test is classed as cell-based, human. As to conditions: 24 h; 30 μg/mL of 1, 2, 5, 6, 7, 8 and 90 μg/mL of 3 and 4 (Figure 4B). How it is done:
HT-29 cells (1 × 10^6 cells/well) were seeded in six-well plates and incubated for 24 h, followed by treatment with AMTs dissolved in DMSO (final concentrations of 10, 20, and 30 µg/mL for compounds 1, 2, 5, 6, 7, and 8, and 30, 60, and 90 µg/mL for compounds 3 and 4, and always below 0.05% DMSO) and 24 h of additional incubation. Colchicine (final concentration of 0.2 μg/mL) was used as positive control. The cells were then washed, harvested with trypsin, and centrifuged at 1500 rpm (5 min, 25 °C). The resulting pellet was fixed with ice-cold 70% ethanol (1 mL/10^6 cells) and the samples were stored at −4°C overnight. After fixation, the cells were washed with PBS, stained with PBS containing 5 mg/mL of RNase A, and incubated for 48 h at 4 °C. Subsequently, 50 μL of 0.1 mg/mL of IP was added and incubated for 1 h at 4 °C. The relative DNA content per cell was analyzed using a Cytomics FC500 flow cytometer (Beckman Coulter, Indianapolis, IN, USA). The data acquisition was performed with the DML program and the analysis of the acquired data with the CXP Software (Beckman Coulter, Indianapolis, IN, USA).
A general note: A flow cytometer gives signals particle by particle.

For test [3], the system named is p-AKT in HT-29 cells. The test can be described thus: Western blot of phosphorylated AKT. The format is cell-based, human. As to conditions: 24 h; 10 and 20 μg/mL for 1, 2, 5, 6, 7, 8; 30 and 60 μg/mL for 3 and 4. How it is done: as §1, §2
The subject of test [4] is HT-29 cells. The experiment in a line: Cultrex 96 well BME cell invasion assay. The test is classed as cell-based. The following applies: Homo sapiens, 24 h; for inhibition at 10 µg/mL: 10 μg/mL. How it is done: The invasion activities were measured using Trevigen’s Cultrex® 96 Well Cell Invasion Assays, as previously described. Briefly, about 50 μL of 1X basement membrane extract (BME) in coat buffer was added to each well. After incubation for 4 h at 37 °C in a 5% CO2 atmosphere, the HT-29 cells at 50,000 cells/50μL in serum free McCoy’s medium were added per well to the top chamber containing the tested compound (10 µg/mL for 1, 2, 5, 6, 7, and 8, and 30 µg/mL for compounds 3 and 4). About 150 μL of McCoy’s medium was then added to the lower chamber containing 10% FBS and penicillin/streptomycin as chemoattractants. Cells were allowed to migrate to the lower chamber in a humidified atmosphere containing 5% CO2 at 37 °C for 24 h. Afterwards, top and bottom chambers were aspirated and washed with washing buffer supplemented with the kit. About 100 μL of Cell Dissociation Solution/Calcein-AM was added to each bottom chamber well and incubated for 1 h at 37 °C in CO2 incubator. The cells internalized calcein-AM and the intracellular esterases cleaved the AM moiety to generate free calcein. Fluorescence of the samples was determined at 485 nm excitation, 520 nm emission, using ELISA plate reader (BioTek Instruments, Winooski, VT, USA). The number of cells that had invaded through the BME coat was calculated using a standard curve. Results were expressed as percentage of invasion (%) compared to the control.

Bounds are passed on as bounds.

What is called inhibition is how much of the control response was suppressed.

For the compound `COc1c(C)cc(O)cc1C/C=C(\C)CC(=O)/C=C(\C)CCCC(C)(O)C(=O)/C=C/C(C)(C)O` (centres unmarked) [Compound 2, 11-hydroxy-1′-O-methylamentadione], the “phospho-JNK level vs control” value in test [1] is “decreased phosphorylation”. Also, in test [2], the “accumulation of cells at the G2/M phase (cell cycle arrest, words)” value (“accumulation of cells at the G2/M phase” below) is given as “significant”. Also, the “expression of p-AKT protein vs control” value in test [3] is reported as “significantly downregulated”.

In the case of `COc1c(C)cc(O)cc1C/C=C(\C)CC(=O)/C=C(\C)CCCC(C)=O` [Compound 3, cystomexicone B], the “phospho-JNK level vs control” value in test [1] is on record as “decreased phosphorylation”. In addition, the “accumulation of cells at the G2/M phase” value in test [2] is “significant”. For the same compound, the inhibition at 30 µg/mL in test [4] (30 μg/mL (methods, Figure 5C)) is > 40%. Also, the “expression of p-AKT protein vs control” value in test [3] is reported as “significantly downregulated”.

Turning to `COc1c(C)cc(O)cc1C/C=C(\C)CC(=O)/C=C(/C)CCCC(C)(O)C(=O)/C=C/C(C)(C)O` (centres unmarked) [Compound 1, usneoidone Z], the “accumulation of cells at the G2/M phase” value in test [2] is reported as “significant cell cycle arrest in the G2/M”. For the same compound, the inhibition at 10 µg/mL in test [4] is > 40%. For the same compound, the “expression of p-AKT protein vs control” value in test [3] is on record as “significantly downregulated”.

As for `COc1c(C)cc(O)cc1/C=C/C(C)(O)CC(=O)/C=C(\C)CCCC(C)C(=O)/C=C/C(C)(C)O` (centres unmarked) [Compound 8, cystodione B], the “phospho-JNK level vs control” value in test [1] is “decreased phosphorylation”. In addition, the “accumulation of cells at the G2/M phase” value in test [2] is listed as “not significant”. The inhibition at 10 µg/mL in test [4] was > 40%. The “expression of p-AKT protein vs control” value in test [3] is on record as “significantly downregulated”.

In the case of `COc1c(C)cc(O)cc1/C=C/C(C)(O)CC(=O)/C=C(/C)CCCC(C)C(=O)/C=C/C(C)(C)O` (centres unmarked) [Compound 7, cystodione A], the “phospho-JNK level vs control” value in test [1] is “decreased phosphorylation”. The “accumulation of cells at the G2/M phase” value in test [2] is “significant”. Further, the “expression of p-AKT protein vs control” value in test [3] is “significantly downregulated”.
